Results from US20250017211A1, “SOLID P[…] CONTROL COMPOSITIONS AND METHODS” (Control Solutions, Inc., priority 2021, published 2025).

Columns and labels:
[1] = test system: all white grubs (scarab larvae); assay: Preventive control of scarab larvae in Kentucky bluegrass, first study, all white grubs; type: in vivo, scarab beetle larvae; settings: study of Example 5
Source text: The primary objectives of this study were to evaluate the influence of application rate and timing on the efficacy of novaluran applied preventively against scarab larvae in cool-season turfgrass. The experiment was located on a stand of turfgrass consisting primarily of Kentucky bluegrass maintained at 7.6 cm. Plots measuring 5×5 ft were arranged in a randomized complete-block design with 2 ft alleys between plots. […] Each treatment was replicated 4 times. Plots were irrigated Immediately after each set of applications (0.1″).
Japanese beetle larval infestations were created by driving two, 20.3 cm diameter PVC cylinders into each plot along its mid-line and caging one group of 40 Japanese beetle adults (50:50 sex ratio) within each cylinder during early July. Scarab larval populations were assessed Oct. 12-16, 2019 using a sod cutter to remove a strip of sod lying directly beneath the caging area of each plot and examining the soil to a depth of 3 inches. All scarab larvae recovered from the plots were identified to genus level, counted and recorded. Variation in scarab larval populations was examined using main effects ANOVA and treatment means were compared using Fisher's LSD test (α=0.05). Treatments and application dates were as described in Table 3.

[2] = test system: white grubs (Japanese beetles and masked chafers); assay: Preventive control of white grubs in Kentucky bluegrass, second study; type: in vivo, scarab beetle larvae; settings: instant (second) study
Protocol: As with the study of Example 5 above, the purpose of this study was to evaluate rates and timings of novaluron and a wetting agent (Syringe) for controlling white grubs in turfgrass. A trial was conducted on Kentucky bluegrass maintained at a height of 7.6 cm. A randomized complete block design with 4 replications of 5′×5′ plots were used. Treatments were applied and all plots were watered in (0.1″) immediately after application. Treatments and application dates were as described in Table 4. Caged Japanese beetle adults (20 male: 20 female) were placed within each plot. Plots were assessed using a sod cutter set to 3″ depth. All scarab beetle larvae recovered were identified to genus level.

How did the Control ([1]; 0.675 lb ai/A) turn out when O=C(NC(=O)c1c(F)cccc1F)Nc1ccc(OC(F)(F)C(F)OC(F)(F)F)c(Cl)c1 (stereo not shown) [Novaluron, novaluron] was run?
The Control was 46-72%.

And the Control ([1]; 0.9 lb ai/A)?
The Control was 45-56%.

What about the Control ([2]; 0.675 lb ai/A) of the same compound?
The Control was 84-90%.

What about the Control ([2]; 0.9 lb ai/A) of the same compound?
The Control was 84-90%.
